Results taken from US20150353495A1 (PORTOLA PHARMACEUTICALS, INC., priority 2010, published 2015).

How the values were obtained:
Format in all cases: biochemical
[1] = biological target: T1, JAK2 (Homo sapiens, UniProt O60674); assay: Z'-LYTE kinase assay JAK2
T1 construct: 5 μl of catalytic domain recombinant Kinase enzyme+Tyr peptide substrate (Invitrogen, CA); purchased Invitrogen
Method: (§1) JAK and TYK2 tyrosine phosphorylation activity is measured using the Z′-LYTE™ Technology developed by Invitrogen Corporation (Carlsbad, Calif.). For JAK1, JAK2 and JAK3 the Z′-LYTE™ Kinase Assay Kit-Tyr6 Peptide (part number PV4122) was used. For TYK2 the Z′-LYTE™ Kinase Assay Kit-Tyr6 Peptide (part number PV3192) was used. The Z′-LYTE™ biochemical assay employs a fluorescence resonance energy transfer (FRET) coupled-enzyme format and is based on the differential sensitivity of phosphorylated and non-phosphorylated peptides to proteolitic cleavage. The assay uses a synthetic peptide substrate that is labelled with a donor fluorophore (coumarin) and an acceptor fluorophore (fluorescein) that make up a FRET pair. In the primary reaction (the Kinase Reaction), the kinase transfers the γ-phosphate of ATP to a single tyrosine residue on the substrate, while the presence of a kinase inhibitor in the primary reaction suppresses phosphorylation. In the secondary reaction (the Development Reaction), a site-specific protease (the Development Reagent) is added. The development buffer quenches the Kinase Reaction, while the protease recognizes and cleaves non-phosphorylated Z′-LYTE™ peptide substrate. Cleavage disrupts FRET between the donor and acceptor fluorophores on the non-phosphoryleted substrate, while uncleaved, phosphorylated substrate maintains FRET.
(§2) To test the ability of candidate molecules to inhibit JAK tyrosine phosphorylation activity, molecules are reconstituted in 100% DMSO and serially diluted 1:10 in polypropylene v-bottom microtiter plates. The candidate molecules are then diluted 1:25 into kinase buffer and 2.5 μl transferred into duplicate wells of a 384 well low volume black microtiter assay plate (Corning, USA). The final DMSO concentration in the assay is 1%. The kinase reaction contains 2.5 μl of a candidate molecule, 5 μl of catalytic domain recombinant Kinase enzyme+Tyr peptide substrate (Invitrogen, CA) and 2.5 μl ATP (Invitrogen, CA). The kinase reaction is allowed to procede for 1 hour at room temperature. The protease reaction is initiated by the addition of 5 μl Development Reagent (Invitrogen, CA). After 1 hour incubation at room temperature the fluorescence is measured using a FlexStation plate reader (Molecular Devices, Sunnyvale, Calif.).

[2] = biological target: T2, JAK3 (Homo sapiens, UniProt P52333); assay: Z'-LYTE kinase assay JAK3
T2 construct: 5 μl of catalytic domain recombinant Kinase enzyme+Tyr peptide substrate (Invitrogen, CA); purchased Invitrogen
T2 sequence (P52333 822-1111 limits assumed): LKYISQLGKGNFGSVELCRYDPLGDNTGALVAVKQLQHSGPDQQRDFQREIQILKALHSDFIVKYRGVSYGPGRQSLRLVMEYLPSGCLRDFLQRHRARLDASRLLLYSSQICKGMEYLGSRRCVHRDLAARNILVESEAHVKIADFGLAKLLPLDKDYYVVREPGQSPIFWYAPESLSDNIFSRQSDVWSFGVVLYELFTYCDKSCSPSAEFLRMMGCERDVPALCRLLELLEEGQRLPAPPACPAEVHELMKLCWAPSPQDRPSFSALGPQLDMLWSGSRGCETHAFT
Method: as §1, §2

[3] = biological target: T3, JAK1 (Homo sapiens, UniProt P23458); assay: Z'-LYTE kinase assay JAK1
T3 construct: 5 μl of catalytic domain recombinant Kinase enzyme+Tyr peptide substrate (Invitrogen, CA); purchased Invitrogen
T3 sequence (P23458 875-1153 limits assumed): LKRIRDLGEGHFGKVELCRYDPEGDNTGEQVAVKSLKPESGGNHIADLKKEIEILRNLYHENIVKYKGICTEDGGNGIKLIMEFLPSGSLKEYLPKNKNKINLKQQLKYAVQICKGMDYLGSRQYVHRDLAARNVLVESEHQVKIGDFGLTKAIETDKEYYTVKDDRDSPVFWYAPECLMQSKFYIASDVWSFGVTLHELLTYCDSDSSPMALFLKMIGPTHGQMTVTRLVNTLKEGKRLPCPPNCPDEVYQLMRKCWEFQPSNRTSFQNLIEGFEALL
Method: as §1, §2

T1 sequence (O60674 849-1124 limits assumed): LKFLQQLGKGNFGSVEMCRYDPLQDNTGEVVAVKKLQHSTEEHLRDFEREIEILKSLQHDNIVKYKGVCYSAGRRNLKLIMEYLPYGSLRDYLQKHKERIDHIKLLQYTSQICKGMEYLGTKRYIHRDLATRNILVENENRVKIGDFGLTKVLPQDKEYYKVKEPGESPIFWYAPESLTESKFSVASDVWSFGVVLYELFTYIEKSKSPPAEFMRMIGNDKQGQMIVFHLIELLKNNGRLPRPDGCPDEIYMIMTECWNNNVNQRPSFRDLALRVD

| IC50 [1] [nM] | IC50 [2] [nM] | IC50 [3] [nM] | SMILES |
| --- | --- | --- | --- |
| 100 to 1000 | 10 to 100 | > 1000 | CN(C)S(=O)(=O)c1ccc(Nc2cc(NCc3cc(F)ccc3F)c(C(N)=O)cn2)cc1 [Example 98, 4-(2,5-difluorobenzylamino)-6-(4-(N,N-dimethylsulfamoyl)phenylamino)nicotinamide] |
| 100 to 1000 | 1 to 10 | 100 to 1000 | NC(=O)c1cnc(Nc2cccc(C(=O)N3CCC3)c2)cc1NCc1cc(F)ccc1F [Example 99, 6-(3-(azetidine-1-carbonyl)phenylamino)-4-(2,5-difluorobenzylamino)nicotinamide] |
| > 1000 | 10 to 100 | > 1000 | COc1ccc(Nc2cc(NCc3cccc(F)c3F)c(C(N)=O)cn2)cc1 [Example 101, 4-(2,3-difluorobenzylamino)-6-(4-methoxyphenylamino)nicotinamide] |
| > 1000 | 10 to 100 | > 1000 | NC(=O)c1cnc(Nc2ccc(C3CCN(S(=O)(=O)C4CC4)CC3)cc2)cc1NCc1ccccc1F [Example 113, 6-(4-(1-(cyclopropylsulfonyl)piperidin-4-yl)phenylamino)-4-(2-fluorobenzylamino)nicotinamide] |
| > 1000 | 10 to 100 | > 1000 | N#CC1(C(=O)N2CCC(c3ccc(Nc4cc(NCc5ccccc5F)c(C(N)=O)cn4)cc3)CC2)CC1 [Example 118, 6-(4-(1-(1-cyanocyclopropanecarbonyl)piperidin-4-yl)phenylamino)-4-(2-fluorobenzylamino)nicotinamide] |
| 10 to 100 | 1 to 10 | 100 to 1000 | NC(=O)c1cnc(Nc2cccc(C3CCNCC3)c2)cc1NCc1ccccc1F [Example 120, 4-(2-fluorobenzylamino)-6-(3-(piperidin-4-yl)phenylamino)nicotinamide] |
| 100 to 1000 | 10 to 100 | 100 to 1000 | CS(=O)(=O)N1CCC(c2cccc(Nc3cc(NCc4ccccc4F)c(C(N)=O)cn3)c2)CC1 [Example 121, 4-(2-fluorobenzylamino)-6-(3-(1-(methylsulfonyl)piperidin-4-yl)phenylamino)nicotinamide] |
| 100 to 1000 | 10 to 100 | 100 to 1000 | CC(=O)N1CCN(c2ccc(Nc3cc(N[C@H]4CC[C@@H](O)CC4)c(C(N)=O)cn3)cc2)CC1 [Example 123, 6-(4-(4-acetylpiperazin-1-yl)phenylamino)-4-((cis)-4-hydroxycyclohexylamino)nicotinamide] |
| 100 to 1000 | 10 to 100 | > 1000 | CCC(=O)N1CCN(c2ccc(Nc3cc(NC4(c5ccccc5)CC4)c(C(N)=O)cn3)cc2)CC1 [Example 124, 4-(1-phenylcyclopropylamino)-6-(4-(4-propionylpiperazin-1-yl)phenylamino)nicotinamide] |
| 100 to 1000 | 10 to 100 | > 1000 | NC(=O)c1cnc(Nc2ccc(N3CCOCC3)cc2)cc1NC1(c2ccccc2)CC1 [Example 125, 6-(4-morpholinophenylamino)-4-(1-phenylcyclopropylamino)-nicotinamide] |
| 100 to 1000 | 10 to 100 | > 1000 | NC(=O)c1cnc(Nc2ccc(CN3CCOCC3)cc2)cc1NC1(c2ccccc2)CC1 [Example 127, 6-(4-(morpholinomethyl)phenylamino)-4-(1-phenylcyclopropylamino)nicotinamide] |
| > 1000 | 10 to 100 | > 1000 | NC(=O)c1cnc(Nc2cccc(N3CCOCC3)c2)cc1NC1(c2ccccc2)CC1 [Example 128, 6-(3-morpholinophenylamino)-4-(1-phenylcyclopropylamino)-nicotinamide] |
| 100 to 1000 | 10 to 100 | > 1000 | NC(=O)c1cnc(Nc2cccc(CN3CCOCC3)c2)cc1NC1(c2ccccc2)CC1 [Example 129, 6-(3-(morpholinomethyl)phenylamino)-4-(1-phenylcyclopropylamino)nicotinamide] |
| > 1000 | 100 to 1000 | > 1000 | NC(=O)c1cnc(Nc2ccc(N3CCC(F)(F)CC3)cc2)cc1NC1(c2ccccc2)CC1 [Example 131, 6-(4-(4,4-difluoropiperidin-1-yl)phenylamino)-4-(1-phenylcyclopropylamino)nicotinamide] |
| 100 to 1000 | 10 to 100 | > 1000 | NC(=O)c1cnc(Nc2ccc(OCCN3CCCC3)cc2)cc1NC1(c2ccccc2)CC1 [Example 132, 4-(1-phenylcyclopropylamino)-6-(4-(2-(pyrrolidin-1-yl)ethoxy)phenylamino)nicotinamide] |
| 100 to 1000 | 10 to 100 | > 1000 | NC(=O)c1cnc(Nc2ccc(OCC(=O)N3CCOCC3)cc2)cc1NC1(c2ccccc2)CC1 [Example 133, 6-(4-(2-morpholino-2-oxoethoxy)phenylamino)-4-(1-phenylcyclopropylamino)nicotinamide] |
| > 1000 | 10 to 100 | > 1000 | NC(=O)c1cnc(Nc2cccc(OCC(=O)N3CCOCC3)c2)cc1NC1(c2ccccc2)CC1 [Example 134, 6-(3-(2-morpholino-2-oxoethoxy)phenylamino)-4-(1-phenylcyclopropylamino)nicotinamide] |
| > 1000 | 100 to 1000 | > 1000 | CC(=O)Nc1cccc(Nc2cc(NC3(c4ccccc4)CC3)c(C(N)=O)cn2)c1 [Example 135, 6-(3-acetamidophenylamino)-4-(1-phenylcyclopropylamino)nicotinamide] |
| > 1000 | 10 to 100 | > 1000 | CN1CCC(C(=O)Nc2cc(Nc3cc(NC4(c5ccccc5)CC4)c(C(N)=O)cn3)ccc2Cl)CC1 [Example 136, 6-(4-chloro-3-(1-methylpiperidine-4-carboxamido)phenylamino)-4-(1-phenylcyclopropylamino)nicotinamide] |
| > 1000 | 100 to 1000 | > 1000 | NC(=O)c1cnc(Nc2ccc(C3CCOCC3)cc2)cc1NC1CCOCC1 [Example 139, 6-(4-(tetrahydro-2H-pyran-4-yl)phenylamino)-4-(tetrahydro-2H-pyran-4-ylamino)nicotinamide] |
| 100 to 1000 | 100 to 1000 | > 1000 | NC(=O)c1cnc(Nc2ccc(C3CCOCC3)cc2)cc1NCC1CCOCC1 [Example 140, 4-((tetrahydro-2H-pyran-4-yl)methylamino)-6-(4-(tetrahydro-2H-pyran-4-yl)phenylamino)nicotinamide] |
| 100 to 1000 | 10 to 100 | > 1000 | NC(=O)c1cnc(Nc2ccc(C3CCOCC3)cc2)cc1NCC1(O)CCCC1 [Example 141, 4-((1-hydroxycyclopentyl)methylamino)-6-(4-(tetrahydro-2H-pyran-4-yl)phenylamino)nicotinamide] |
| 100 to 1000 | 10 to 100 | > 1000 | NC(=O)c1cnc(Nc2ccc(C3CCOCC3)cc2)cc1NCc1ccccc1F [Example 142, 4-(2-fluorobenzylamino)-6-(4-(tetrahydro-2H-pyran-4-yl)phenylamino)nicotinamide] |
| 100 to 1000 | 10 to 100 | > 1000 | CCC(=O)N1CCC(c2ccc(Nc3cc(NCC4CCOCC4)c(C(N)=O)cn3)cc2)CC1 [Example 144, 6-(4-(1-propionylpiperidin-4-yl)phenylamino)-4-((tetrahydro-2H-pyran-4-yl)methylamino)nicotinamide] |
| 10 to 100 | 1 to 10 | > 1000 | CCC(=O)N1CCC(c2ccc(Nc3cc(NCc4cccc(F)c4)c(C(N)=O)cn3)cc2)CC1 [Example 145, 4-(3-fluorobenzylamino)-6-(4-(1-propionylpiperidin-4-yl)phenylamino)nicotinamide] |
| 100 to 1000 | 100 to 1000 | > 1000 | CCC(=O)N1CCC(c2ccc(Nc3cc(NC4CCOCC4)c(C(N)=O)cn3)cc2)CC1 [Example 146, 6-(4-(1-propionylpiperidin-4-yl)phenylamino)-4-(tetrahydro-2H-pyran-4-ylamino)nicotinamide] |
| 100 to 1000 | 10 to 100 | 100 to 1000 | CCC(=O)N1CCC(c2ccc(Nc3cc(NC4CCCC4)c(C(N)=O)cn3)cc2)CC1 [Example 147, 4-(cyclopentylamino)-6-(4-(1-propionylpiperidin-4-yl)phenylamino)nicotinamide] |
| 100 to 1000 | 100 to 1000 | > 1000 | CCC(=O)N1CCC(c2ccc(Nc3cc(NCc4ccc(F)c(F)c4)c(C(N)=O)cn3)cc2)CC1 [Example 148, 4-(3,4-difluorobenzylamino)-6-(4-(1-propionylpiperidin-4-yl)phenylamino)nicotinamide] |
